These results are taken from US20240408222A1, “COMPOUNDS, PHARMACEUTICAL COMPOSITIONS, AND METHODS FOR THE TREATMENT, PREVENTION, OR MANAGEMENT OF HYPERPRO[…]” (VINCERX PHARMA GMBH, priority 2021, published 2024).

Experiment in all cases: Cytotoxicity assay (Version 2, automated, AC50) with/without neutrophil elastase
Holding throughout (details): Version 2, activity concentration at −50%

For one test, the system named is HT29. In kind it is cell-based, human. How it is done:
(§1) Cultivation of cells was performed according to standard procedures with the media recommended by the provider. The cells, in a total volume of 100 μL, were seeded in a 96-well plate with a white bottom (#3610). After a 24 h incubation period at 37° C. and […], the medium was exchanged by adding 90 μL fresh medium. The treatment started by adding the test compound in 10 μL of culture medium to the cells in triplicates. Concentrations ranging from 10^−5 M to 10^−13 M were chosen. Two identically treated sets of samples were prepared. One set was treated with the test compound alone, whereas to the second set the compound and 10 nM elastase was added followed by a 72 h incubation period at 37° C. and […]. The proliferation was detected using the MTT assay (ATCC). At the end of the incubation period the MTT reagent was added to all samples for 4 h. Lysis of the cells followed by addition of the detergent was done overnight. The formed dye was detected at 570 nm. The proliferation of untreated but otherwise identically handled cells was define as the 100% value.
(§2) The cytotoxicity assay (Version 2) was performed as described above. Some changes were applied as the assays were performed in an automated fashion and the IC50 values determination was changed. Here the change in metabolic activity of the cells, in percent, was calculated by normalization of the measured values to the absorbance values of medium containing wells without cells (═−100%) and the absorbance of the DMSO-treated cells (═0%). AC50 values (activity concentration at −50%) were determined by means of a 4 parameter Hill-fit using GeneData Screener software.

In another test the test system is NCI H292. In kind it is cell-based, human. How it is done: as §1, §2
A further test concerns 786-O. In kind it is cell-based, human. How it is done:
as §1, §2

The subject of the next test is SUM149. In kind it is cell-based. How it is done: as §1, §2
Setting [1] is: HT29, with (+) neutrophil elastase.
[2] abbreviates: HT29, without (−) neutrophil elastase.
Where [3] appears, read: NCI H292, with (+) neutrophil elastase.
The mark [4] stands for this setting: NCI H292, without (−) neutrophil elastase.
The mark [5] stands for this setting: without (−) neutrophil elastase.
[6] abbreviates: SUM149, with (+) neutrophil elastase.
The mark [7] stands for this setting: SUM149, without (−) neutrophil elastase.

With `CCCNC(=O)Nc1cccc(S(=O)(=O)Nc2cccc([C@H](CC(=O)O)NC(=O)Nc3ccc(NC(=O)NCCN(C)CCN(C)CCN(C)CC(=O)N[C@@H](CC(N)=O)C(=O)N4CCC[C@H]4C(=O)N[C@H](C(=O)N=S(C)(=O)Cc4cc5nc(c4)OCCCOc4cc(F)ccc4-c4cc(ncc4F)N5)C(C)C)cc3)c2)c1` (mixture of isomers) [Compound 23], the AC50 (in general, the midpoint of the concentration-response curve, whichever way the signal moves) in the test with HT29 (setting [1]) is not above 10 nM; in the test with HT29 (setting [2]), 100 to 1000 nM; with NCI H292 (setting [3]), not above 10 nM; with NCI H292 (setting [4]), 100 to 1000 nM; with 786-O (with (+) neutrophil elastase), not above 10 nM; in the test on 786-O (setting [5]), 100 to 1000 nM. The concentration at half-maximal activity (AC50) in the test on SUM149 (setting [6]) was not above 10 nM; with SUM149 (setting [7]), 100 to 1000 nM.

Turning to `CCCNC(=O)Nc1cccc(S(=O)(=O)Nc2cccc([C@@H](CC(=O)O)NC(=O)Nc3ccc(NC(=O)NCCOCCOCCOCCC(=O)N[C@@H](CC(=O)O)C(=O)N4CCC[C@H]4C(=O)N[C@H](C(=O)N=S(C)(=O)Cc4cc5cc(c4)OCCCCOc4cc(F)ccc4-c4nc(ncc4F)N5)C(C)C)cc3)c2)c1` (relative stereo) [Compound 36], the half-maximal activity concentration (AC50) with HT29 (setting [1]) fell in the range of 11 to 100 nM; in the test with HT29 (setting [2]), 100 to 1000 nM; with NCI H292 (setting [3]), 11 to 100 nM; in the test with NCI H292 (setting [4]), 100 to 1000 nM; with 786-O (with (+) neutrophil elastase), 11 to 100 nM; in the test on 786-O (setting [5]), 100 to 1000 nM. The AC50 in the test on SUM149 (setting [6]) lay within 11 to 100 nM; in the test on SUM149 (setting [7]), 100 to 1000 nM.

As to “disodium 1-{(2S)-2-(carboxylatomethyl)-17-[4-({[(1R)-2-carboxylato-1-{3-[({3-[(propylcarbamoyl)amino]phenyl}sulfonyl)amino]phenyl}ethyl]carbamoyl}amino)anilino]-4,17-dioxo-7,10,13-trioxa-3,16-diazaheptadecan-1-oyl}-L-prolyl-N—[(R*)—{[15,19-difluoro-3,4-dihydro-2H,11H-10,6-(azeno)-12,16-(metheno)-1,5,11,13-benzodioxadiazacyclooctadecin-8-yl]methyl}(methyl)oxido-lambda^6-sulfanylidene]-L-valinamide [Compound 42]”, the AC50 was not above 10 nM in the test on HT29 (setting [1]); more than 1000 nM with HT29 (setting [2]); not above 10 nM in the test on NCI H292 (setting [3]); 100 to 1000 nM in the test on NCI H292 (setting [4]); not above 10 nM with 786-O (with (+) neutrophil elastase); 100 to 1000 nM in the test with 786-O (setting [5]). The concentration at half-maximal activity (AC50) is not above 10 nM in the test on SUM149 (setting [6]) and 100 to 1000 nM with SUM149 (setting [7]).

`CCCNC(=O)Nc1cccc(S(=O)(=O)Nc2cccc([C@@H](CC(=O)O)NC(=O)Nc3ccc(NC(=O)NCCOCCOCCOCCC(=O)NCCNC(=O)CC[C@H](NC(=O)CCCC(=O)NCCN(C)CCN(C)CCN(C)CC(=O)N[C@@H](CC(N)=O)C(=O)N4CCC[C@H]4C(=O)N[C@H](C(=O)N=[S@@](C)(=O)Cc4cc5cc(c4)OCCCCOc4cc(F)ccc4-c4nc(ncc4F)N5)C(C)C)C(=O)NCCNC(=O)CCOCCOCCOCCNC(=O)Nc4ccc(NC(=O)N[C@H](CC(=O)O)c5cccc(NS(=O)(=O)c6cccc(NC(=O)NCCC)c6)c5)cc4)cc3)c2)c1` [Compound 25]: the AC50 is 11 to 100 nM in the test with HT29 (setting [1]); more than 1000 nM with HT29 (setting [2]); 11 to 100 nM with NCI H292 (setting [3]); 11 to 100 nM with 786-O (with (+) neutrophil elastase); more than 1000 nM with 786-O (setting [5]); 11 to 100 nM in the test with SUM149 (setting [6]). The molecule also had an AC50 with SUM149 (setting [7]) of 100 to 1000 nM.

As for `CCCNC(=O)Nc1cccc(S(=O)(=O)Nc2cccc([C@@H](CC(=O)O)NC(=O)Nc3ccc(NC(=O)NCCOCCOCCOCCC(=O)NCCCC[C@H](NC(=O)CCOCCOCCOCCNC(=O)Nc4ccc(NC(=O)N[C@H](CC(=O)O)c5cccc(NS(=O)(=O)c6cccc(NC(=O)NCCC)c6)c5)cc4)C(=O)NCCOCCOCCOCCC(=O)N[C@@H](CC(=O)O)C(=O)N4CCC[C@H]4C(=O)N[C@H](C(=O)N=[S@](C)(=O)Cc4cc5cc(c4)O[C@H](C)CCOc4cc(F)ccc4-c4nc(ncc4F)N5)C(C)C)cc3)c2)c1` (relative stereo) [Compound 31], the AC50 with HT29 (setting [1]) was not above 10 nM; in the test with HT29 (setting [2]), more than 1000 nM; in the test with NCI H292 (setting [3]) it was not above 10 nM; in the test with NCI H292 (setting [4]), 100 to 1000 nM; with 786-O (with (+) neutrophil elastase), not above 10 nM; in the test with 786-O (setting [5]), more than 1000 nM. Further, the AC50 is not above 10 nM in the test on SUM149 (setting [6]) and 100 to 1000 nM with SUM149 (setting [7]).

Consider `CCCNC(=O)Nc1cccc(S(=O)(=O)Nc2cccc([C@@H](CC(=O)O)NC(=O)Nc3ccc(NC(=O)NCCOCCOCCOCCC(=O)N[C@@H](CC(=O)O)C(=O)N4CCC[C@H]4C(=O)N[C@@H](C(=O)N=[S@@](C)(=O)Cc4cc5cc(c4)O[C@@H](C)CCOc4cc(F)ccc4-c4nc(ncc4F)N5)C(C)C)cc3)c2)c1` (relative stereo) [Compound 39, N-(14-{4-[({(1R)-2-carboxy-1-[3-({3-[(propylcarbamoyl)amino]benzene-1-sulfonyl}amino)phenyl]ethyl}carbamoyl)amino]anilino}-14-oxo-4,7,10-trioxa-13-azatetradecanan-1-oyl)-L-alpha-aspartyl-L-prolyl-N—[(R*)—{[(4R*)-15,19-difluoro-4-methyl-3,4-dihydro-2H,11H-12,16-(azeno)-10,6-(metheno)-1,5,11,13-benzodioxadiazacyclooctadecin-8-yl]methyl}(methyl)oxo-lambda^6-sulfanylidene]-D-valinamide], for which the half-maximal activity concentration (AC50) is not above 10 nM in the test on HT29 (setting [1]); 100 to 1000 nM in the test on HT29 (setting [2]); not above 10 nM in the test on NCI H292 (setting [3]); 100 to 1000 nM in the test with NCI H292 (setting [4]); not above 10 nM in the test on 786-O (with (+) neutrophil elastase); 100 to 1000 nM in the test with 786-O (setting [5]). Also, the half-maximal activity concentration (AC50) in the test with SUM149 (setting [6]) was not above 10 nM; with SUM149 (setting [7]), 100 to 1000 nM.

As to `CCCNC(=O)Nc1cccc(S(=O)(=O)Nc2cccc([C@@H](CC(=O)O)NC(=O)Nc3ccc(NC(=O)NCCOCCOCCOCCC(=O)N[C@@H](CC(=O)O)C(=O)N4CCC[C@H]4C(=O)N[C@H](C(=O)N=[S@@](C)(=O)Cc4cc5nc(c4)OCCCOc4cc(F)ccc4-c4cc(ncc4F)N5)C(C)C)cc3)c2)c1` (racemic) [Compound 37, N-(14-{4-[({(1R)-2-carboxy-1-[3-({3-[(propylcarbamoyl)amino]benzene-1-sulfonyl}amino)phenyl]ethyl}carbamoyl)amino]anilino}-14-oxo-4,7,10-trioxa-13-azatetradecanan-1-oyl)-L-alpha-aspartyl-L-prolyl-N—[(RS)—{[15,19-difluoro-3,4-dihydro-2H,11H-10,6-(azeno)-12,16-(metheno)-1,5,11,13-benzodioxadiazacyclooctadecin-8-yl]methyl}(methyl)oxo-lambda^6-sulfanylidene]-L-valinamide], the AC50 with HT29 (setting [1]) was not above 10 nM; with HT29 (setting [2]), 100 to 1000 nM; in the test on NCI H292 (setting [3]), not above 10 nM; in the test on NCI H292 (setting [4]), 100 to 1000 nM; in the test with 786-O (with (+) neutrophil elastase), not above 10 nM; in the test with 786-O (setting [5]), 100 to 1000 nM. Also, the AC50 in the test on SUM149 (setting [6]) is not above 10 nM; with SUM149 (setting [7]), 100 to 1000 nM.

Turning to `CCCNC(=O)Nc1cccc(S(=O)(=O)Nc2cccc([C@@H](CC(=O)O)NC(=O)Nc3ccc(NC(=O)NCCN(C)CCN(C)CCN(C)CC(=O)N[C@@H](CC(N)=O)C(=O)N4CCC[C@H]4C(=O)N[C@H](C(=O)N=[S@@](C)(=O)Cc4cc5cc(c4)O[C@@H](C)CCOc4cc(F)ccc4-c4nc(ncc4F)N5)C(C)C)cc3)c2)c1` (single isomer, unassigned) [Compound 24], the AC50 in the test on HT29 (setting [1]) is not above 10 nM; in the test with HT29 (setting [2]), 100 to 1000 nM; in the test on NCI H292 (setting [3]), not above 10 nM; with NCI H292 (setting [4]), 100 to 1000 nM; in the test on 786-O (with (+) neutrophil elastase) it was not above 10 nM; in the test on 786-O (setting [5]), 100 to 1000 nM. The AC50 in the test on SUM149 (setting [6]) is not above 10 nM; with SUM149 (setting [7]), 100 to 1000 nM.

Regarding `CCCNC(=O)Nc1cccc(S(=O)(=O)Nc2cccc([C@@H](CC(=O)O)NC(=O)Nc3ccc(NC(=O)NCCOCCOCCOCCC(=O)NCCCC[C@H](NC(=O)CCOCCOCCOCCNC(=O)Nc4ccc(NC(=O)N[C@H](CC(=O)O)c5cccc(NS(=O)(=O)c6cccc(NC(=O)NCCC)c6)c5)cc4)C(=O)NCCN(C)CCN(C)CCN(C)CC(=O)N[C@@H](CC(N)=O)C(=O)N4CCC[C@H]4C(=O)N[C@H](C(=O)N=[S@@](C)(=O)Cc4cc5cc(c4)O[C@@H](C)CCOc4cc(F)ccc4-c4nc(ncc4F)N5)C(C)C)cc3)c2)c1` (relative stereo) [Compound 28], the half-maximal activity concentration (AC50) was not above 10 nM with HT29 (setting [1]); 100 to 1000 nM with HT29 (setting [2]); not above 10 nM in the test with NCI H292 (setting [3]); 100 to 1000 nM in the test on NCI H292 (setting [4]); not above 10 nM in the test with 786-O (with (+) neutrophil elastase); more than 1000 nM with 786-O (setting [5]). In addition, the AC50 in the test on SUM149 (setting [6]) was not above 10 nM; in the test on SUM149 (setting [7]), 100 to 1000 nM.
